According to ChEMBL document CHEMBL1909046, “DrugMatrix in vitro pharmacology data”:

System: not listed separately
Assay: DRUGMATRIX: Tumor Necrosis Factor (TNF), Non-Selective radioligand binding (ligand: [125I] TNF-alpha)
Format: cell membranes, Membrane
Settings: u-937; Not Active = under 50% inhibition at 10 µM

With `COC(=O)C[C@](O)(CCC(C)(C)O)C(=O)O[C@@H]1C(OC)=C[C@]23CCCN2CCc2cc4c(cc2[C@H]13)OCO4` [HARRINGTONINE] as the molecule, how does the IC50 read?
Its IC50 is “Not Active”.

What about the Ki of the same molecule?
Its Ki is “Not Active”.

Which results are given for `CC12CCC(CC1=O)C2(C)C` (centres undefined) [CAMPHOR]?
IC50: Not Active; Ki: Not Active

For `CCN1CCN(C(=O)N[C@@H](C(=O)N[C@@H]2C(=O)N3[C@@H]2SC(C)(C)[C@@H]3C(=O)O)c2ccccc2)C(=O)C1=O` [PIPERACILLIN], which IC50 is on record?
Its IC50 is “Not Active”.

What about the Ki of the same molecule?
The Ki was “Not Active”.

With `C=CCO` [ALLYL ALCOHOL] as the molecule, how does the IC50 read?
The IC50 was “Not Active”.

What about the Ki of the same molecule?
The Ki was “Not Active”.

For `O=C(O)CCc1nc(-c2ccccc2)c(-c2ccccc2)o1` [OXAPROZIN], which IC50 is on record?
Its IC50 is “Not Active”.

And the Ki?
The Ki was “Not Active”.

Which results are given for `c1ccc2sc(SSc3nc4ccccc4s3)nc2c1` [BENZOTHIAZYL DISULFIDE]?
IC50: Not Active; Ki: Not Active

Target: T1, Polyunsaturated fatty acid lipoxygenase ALOX15 (Oryctolagus cuniculus, UniProt P12530);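 note: inhibition of 15-lipoxygenase enzyme activity measured with linoleic acid as the substrate; in other assays of this panel Not Active means under 50% inhibition at 10 µM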
T1 sequence (P12530 whole entry): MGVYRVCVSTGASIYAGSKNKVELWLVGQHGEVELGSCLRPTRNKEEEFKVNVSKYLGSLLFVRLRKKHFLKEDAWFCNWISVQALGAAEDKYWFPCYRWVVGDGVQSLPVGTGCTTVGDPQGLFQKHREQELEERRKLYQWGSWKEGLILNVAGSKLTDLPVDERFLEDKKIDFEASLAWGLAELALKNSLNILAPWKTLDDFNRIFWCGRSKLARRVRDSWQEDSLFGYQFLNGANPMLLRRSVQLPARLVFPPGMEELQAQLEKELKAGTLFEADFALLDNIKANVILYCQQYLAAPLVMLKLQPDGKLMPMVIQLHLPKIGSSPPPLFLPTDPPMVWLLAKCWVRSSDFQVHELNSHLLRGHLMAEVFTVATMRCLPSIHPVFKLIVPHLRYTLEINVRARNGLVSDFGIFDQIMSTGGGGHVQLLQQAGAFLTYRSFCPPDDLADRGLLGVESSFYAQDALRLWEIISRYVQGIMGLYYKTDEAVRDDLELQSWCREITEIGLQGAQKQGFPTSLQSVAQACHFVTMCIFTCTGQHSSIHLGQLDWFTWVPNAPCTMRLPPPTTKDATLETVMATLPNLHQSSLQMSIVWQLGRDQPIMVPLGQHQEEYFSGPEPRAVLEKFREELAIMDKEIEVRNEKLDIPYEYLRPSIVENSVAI
Assay: biochemical
Format: tissue-based, Reticulocytes
Settings: reticulocytes

For `COC(=O)C[C@](O)(CCC(C)(C)O)C(=O)O[C@@H]1C(OC)=C[C@]23CCCN2CCc2cc4c(cc2[C@H]13)OCO4` [HARRINGTONINE], which IC50 is on record?
Its IC50 is “Not Active”.

For `CC12CCC(CC1=O)C2(C)C` (centres undefined) [CAMPHOR], which IC50 is on record?
The IC50 was “Not Active”.

With `CCN1CCN(C(=O)N[C@@H](C(=O)N[C@@H]2C(=O)N3[C@@H]2SC(C)(C)[C@@H]3C(=O)O)c2ccccc2)C(=O)C1=O` [PIPERACILLIN] as the molecule, how does the IC50 read?
Its IC50 is “Not Active”.

Which IC50 does the source give for `C=CCO` [ALLYL ALCOHOL] here?
Its IC50 is “Not Active”.

For `O=C(O)CCc1nc(-c2ccccc2)c(-c2ccccc2)o1` [OXAPROZIN], which IC50 is on record?
Its IC50 is “Not Active”.

Which IC50 does the source give for `c1ccc2sc(SSc3nc4ccccc4s3)nc2c1` [BENZOTHIAZYL DISULFIDE] here?
The IC50 was “Not Active”.

Target: Histamine H2 receptor (Homo sapiens, UniProt P25021); note: in other assays of this panel Not Active means under 50% inhibition at 10 µM
Sequence (P25021 whole entry): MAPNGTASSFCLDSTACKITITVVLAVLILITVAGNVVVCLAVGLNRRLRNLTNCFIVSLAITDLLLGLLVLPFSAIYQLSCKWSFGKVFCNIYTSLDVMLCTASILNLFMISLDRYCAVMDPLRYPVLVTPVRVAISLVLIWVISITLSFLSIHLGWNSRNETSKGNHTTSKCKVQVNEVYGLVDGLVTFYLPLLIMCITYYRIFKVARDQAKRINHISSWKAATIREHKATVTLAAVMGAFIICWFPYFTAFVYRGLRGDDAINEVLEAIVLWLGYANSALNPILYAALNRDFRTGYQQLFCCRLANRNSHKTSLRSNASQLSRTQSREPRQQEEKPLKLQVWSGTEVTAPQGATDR
Assay: not given
Format: cell membranes, CHO-K1, Membrane
Settings: cho-k1

For `COC(=O)C[C@](O)(CCC(C)(C)O)C(=O)O[C@@H]1C(OC)=C[C@]23CCCN2CCc2cc4c(cc2[C@H]13)OCO4` [HARRINGTONINE], which IC50 is on record?
The IC50 was “Not Active”.

With `CC12CCC(CC1=O)C2(C)C` (centres undefined) [CAMPHOR] as the molecule, how does the IC50 read?
Its IC50 is “Not Active”.

For `CCN1CCN(C(=O)N[C@@H](C(=O)N[C@@H]2C(=O)N3[C@@H]2SC(C)(C)[C@@H]3C(=O)O)c2ccccc2)C(=O)C1=O` [PIPERACILLIN], which IC50 is on record?
Its IC50 is “Not Active”.

Which IC50 does the source give for `C=CCO` [ALLYL ALCOHOL] here?
The IC50 was “Not Active”.

With `O=C(O)CCc1nc(-c2ccccc2)c(-c2ccccc2)o1` [OXAPROZIN] as the molecule, how does the IC50 read?
The IC50 was “Not Active”.

Which IC50 does the source give for `c1ccc2sc(SSc3nc4ccccc4s3)nc2c1` [BENZOTHIAZYL DISULFIDE] here?
The IC50 was “Not Active”.

Target: T2, Neuropeptide Y receptor type 1 (Homo sapiens, UniProt P25929); note: in other assays of this panel Not Active means under 50% inhibition at 10 µM
T2 sequence (P25929 whole entry): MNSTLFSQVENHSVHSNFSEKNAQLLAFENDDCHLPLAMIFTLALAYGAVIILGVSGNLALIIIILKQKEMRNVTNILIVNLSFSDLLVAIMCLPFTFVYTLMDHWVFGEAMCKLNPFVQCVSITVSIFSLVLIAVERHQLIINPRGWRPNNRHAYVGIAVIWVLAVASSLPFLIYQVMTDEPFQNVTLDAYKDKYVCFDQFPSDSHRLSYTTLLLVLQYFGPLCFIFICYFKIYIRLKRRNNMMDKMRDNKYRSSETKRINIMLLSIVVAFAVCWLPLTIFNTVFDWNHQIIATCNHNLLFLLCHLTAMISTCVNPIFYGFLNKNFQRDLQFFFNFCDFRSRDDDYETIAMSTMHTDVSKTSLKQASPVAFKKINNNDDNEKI
Assay: not given
Format: cell membranes, Membrane
Settings: sk-n-mc

For `COC(=O)C[C@](O)(CCC(C)(C)O)C(=O)O[C@@H]1C(OC)=C[C@]23CCCN2CCc2cc4c(cc2[C@H]13)OCO4` [HARRINGTONINE], which IC50 is on record?
Its IC50 is “Not Active”.

With `CC12CCC(CC1=O)C2(C)C` (centres undefined) [CAMPHOR] as the molecule, how does the IC50 read?
Its IC50 is “Not Active”.

With `CCN1CCN(C(=O)N[C@@H](C(=O)N[C@@H]2C(=O)N3[C@@H]2SC(C)(C)[C@@H]3C(=O)O)c2ccccc2)C(=O)C1=O` [PIPERACILLIN] as the molecule, how does the IC50 read?
The IC50 was “Not Active”.

Which IC50 does the source give for `C=CCO` [ALLYL ALCOHOL] here?
Its IC50 is “Not Active”.

For `O=C(O)CCc1nc(-c2ccccc2)c(-c2ccccc2)o1` [OXAPROZIN], which IC50 is on record?
Its IC50 is “Not Active”.

With `c1ccc2sc(SSc3nc4ccccc4s3)nc2c1` [BENZOTHIAZYL DISULFIDE] as the molecule, how does the IC50 read?
The IC50 was “Not Active”.

Target: T3, Cathepsin G (Homo sapiens, UniProt P08311);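 note: inhibition of Cathepsin G enzyme activity, tested on an AMC-conjugated peptide substrate; in other assays of this panel Not Active means under 50% inhibition at 10 µM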
T3 sequence (P08311 whole entry): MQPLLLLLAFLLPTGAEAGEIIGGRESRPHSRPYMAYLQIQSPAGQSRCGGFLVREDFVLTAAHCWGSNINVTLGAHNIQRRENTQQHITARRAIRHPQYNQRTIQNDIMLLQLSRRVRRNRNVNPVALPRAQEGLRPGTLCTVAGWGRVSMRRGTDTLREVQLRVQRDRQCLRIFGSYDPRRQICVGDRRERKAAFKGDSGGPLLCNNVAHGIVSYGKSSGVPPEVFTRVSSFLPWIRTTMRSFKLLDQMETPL
Assay: biochemical
Format: tissue-based, Neutrophil
Settings: neutrophil

With `COC(=O)C[C@](O)(CCC(C)(C)O)C(=O)O[C@@H]1C(OC)=C[C@]23CCCN2CCc2cc4c(cc2[C@H]13)OCO4` [HARRINGTONINE] as the molecule, how does the IC50 read?
Its IC50 is “Not Active”.

For `CC12CCC(CC1=O)C2(C)C` (centres undefined) [CAMPHOR], which IC50 is on record?
The IC50 was “Not Active”.

For `CCN1CCN(C(=O)N[C@@H](C(=O)N[C@@H]2C(=O)N3[C@@H]2SC(C)(C)[C@@H]3C(=O)O)c2ccccc2)C(=O)C1=O` [PIPERACILLIN], which IC50 is on record?
The IC50 was “Not Active”.

Which IC50 does the source give for `C=CCO` [ALLYL ALCOHOL] here?
The IC50 was “Not Active”.

Which IC50 does the source give for `O=C(O)CCc1nc(-c2ccccc2)c(-c2ccccc2)o1` [OXAPROZIN] here?
The IC50 was “Not Active”.

For `c1ccc2sc(SSc3nc4ccccc4s3)nc2c1` [BENZOTHIAZYL DISULFIDE], which IC50 is on record?
Its IC50 is “Not Active”.

Target: T4, C-X-C chemokine receptor type 1 (Homo sapiens, UniProt P25024); note: in other assays of this panel Not Active means under 50% inhibition at 10 µM
T4 sequence (P25024 whole entry): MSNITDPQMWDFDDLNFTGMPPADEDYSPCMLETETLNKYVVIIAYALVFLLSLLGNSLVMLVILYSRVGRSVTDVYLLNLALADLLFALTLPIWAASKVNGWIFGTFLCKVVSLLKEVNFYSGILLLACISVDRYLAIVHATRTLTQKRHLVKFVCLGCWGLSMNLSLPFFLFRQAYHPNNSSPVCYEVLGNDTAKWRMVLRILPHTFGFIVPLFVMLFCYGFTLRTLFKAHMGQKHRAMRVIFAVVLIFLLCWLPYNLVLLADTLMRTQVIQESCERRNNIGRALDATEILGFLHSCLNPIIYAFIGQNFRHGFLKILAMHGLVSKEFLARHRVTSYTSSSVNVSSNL
Assay: not given
Settings: not given

With `COC(=O)C[C@](O)(CCC(C)(C)O)C(=O)O[C@@H]1C(OC)=C[C@]23CCCN2CCc2cc4c(cc2[C@H]13)OCO4` [HARRINGTONINE] as the molecule, how does the IC50 read?
Its IC50 is “Not Active”.

Which IC50 does the source give for `CC12CCC(CC1=O)C2(C)C` (centres undefined) [CAMPHOR] here?
The IC50 was “Not Active”.

For `CCN1CCN(C(=O)N[C@@H](C(=O)N[C@@H]2C(=O)N3[C@@H]2SC(C)(C)[C@@H]3C(=O)O)c2ccccc2)C(=O)C1=O` [PIPERACILLIN], which IC50 is on record?
Its IC50 is “Not Active”.

With `C=CCO` [ALLYL ALCOHOL] as the molecule, how does the IC50 read?
The IC50 was “Not Active”.

Which IC50 does the source give for `O=C(O)CCc1nc(-c2ccccc2)c(-c2ccccc2)o1` [OXAPROZIN] here?
The IC50 was “Not Active”.

For `c1ccc2sc(SSc3nc4ccccc4s3)nc2c1` [BENZOTHIAZYL DISULFIDE], which IC50 is on record?
The IC50 was “Not Active”.

System: not listed separately
Assay: DRUGMATRIX: GABAA, Flunitrazepam, Central radioligand binding (ligand: [3H] Flunitrazepam)
Format: cell membranes, Rattus norvegicus, Wistar, Brain, Membrane
Settings: Not Active = under 50% inhibition at 10 µM

With `COC(=O)C[C@](O)(CCC(C)(C)O)C(=O)O[C@@H]1C(OC)=C[C@]23CCCN2CCc2cc4c(cc2[C@H]13)OCO4` [HARRINGTONINE] as the molecule, how does the IC50 read?
The IC50 was “Not Active”.

And the Ki?
The Ki was “Not Active”.

Which IC50 does the source give for `CC12CCC(CC1=O)C2(C)C` (centres undefined) [CAMPHOR] here?
Its IC50 is “Not Active”.

What about the Ki of the same molecule?
The Ki was “Not Active”.

Which IC50 does the source give for `CCN1CCN(C(=O)N[C@@H](C(=O)N[C@@H]2C(=O)N3[C@@H]2SC(C)(C)[C@@H]3C(=O)O)c2ccccc2)C(=O)C1=O` [PIPERACILLIN] here?
The IC50 was “Not Active”.

And the Ki?
Its Ki is “Not Active”.

Which IC50 does the source give for `C=CCO` [ALLYL ALCOHOL] here?
The IC50 was “Not Active”.

What about the Ki of the same molecule?
The Ki was “Not Active”.

Which IC50 does the source give for `O=C(O)CCc1nc(-c2ccccc2)c(-c2ccccc2)o1` [OXAPROZIN] here?
Its IC50 is “Not Active”.

What about the Ki of the same molecule?
The Ki was “Not Active”.

Which results are given for `c1ccc2sc(SSc3nc4ccccc4s3)nc2c1` [BENZOTHIAZYL DISULFIDE]?
IC50: Not Active; Ki: Not Active
